Data as given in ChEMBL document CHEMBL3638724, “Selective androgen receptor modulators” (2015).

molecular target: T1, Androgen receptor (Homo sapiens, UniProt P10275); assay: The assay was performed as specified by the manufacturer (Invitrogen, Madison, Wis.). Briefly, 1 ul of 10 mM compound was added to 500 ul of AR screening buffer in a 1.5 ml eppendorf tube to make a 2x10-5M stock. 10-fold serial dilutions of the test compounds were prepared ranging in concentration from 10^-5M to 10-12M. Each dilution was added in triplicate to a black 384-microtiter plate. The test compounds will be diluted 2-fold in the final reaction. 2xAR-Fluormone complex was prepared with 2 nM Flourmone AL Green and 30 nM AR. 25 ul of 2x complex was aliquoted to each reaction well, such that the final reaction volume was 50 ul per well. The plate was sealed with a foil cover and incubated in the dark at room temperature.
T1 sequence (P10275 whole entry): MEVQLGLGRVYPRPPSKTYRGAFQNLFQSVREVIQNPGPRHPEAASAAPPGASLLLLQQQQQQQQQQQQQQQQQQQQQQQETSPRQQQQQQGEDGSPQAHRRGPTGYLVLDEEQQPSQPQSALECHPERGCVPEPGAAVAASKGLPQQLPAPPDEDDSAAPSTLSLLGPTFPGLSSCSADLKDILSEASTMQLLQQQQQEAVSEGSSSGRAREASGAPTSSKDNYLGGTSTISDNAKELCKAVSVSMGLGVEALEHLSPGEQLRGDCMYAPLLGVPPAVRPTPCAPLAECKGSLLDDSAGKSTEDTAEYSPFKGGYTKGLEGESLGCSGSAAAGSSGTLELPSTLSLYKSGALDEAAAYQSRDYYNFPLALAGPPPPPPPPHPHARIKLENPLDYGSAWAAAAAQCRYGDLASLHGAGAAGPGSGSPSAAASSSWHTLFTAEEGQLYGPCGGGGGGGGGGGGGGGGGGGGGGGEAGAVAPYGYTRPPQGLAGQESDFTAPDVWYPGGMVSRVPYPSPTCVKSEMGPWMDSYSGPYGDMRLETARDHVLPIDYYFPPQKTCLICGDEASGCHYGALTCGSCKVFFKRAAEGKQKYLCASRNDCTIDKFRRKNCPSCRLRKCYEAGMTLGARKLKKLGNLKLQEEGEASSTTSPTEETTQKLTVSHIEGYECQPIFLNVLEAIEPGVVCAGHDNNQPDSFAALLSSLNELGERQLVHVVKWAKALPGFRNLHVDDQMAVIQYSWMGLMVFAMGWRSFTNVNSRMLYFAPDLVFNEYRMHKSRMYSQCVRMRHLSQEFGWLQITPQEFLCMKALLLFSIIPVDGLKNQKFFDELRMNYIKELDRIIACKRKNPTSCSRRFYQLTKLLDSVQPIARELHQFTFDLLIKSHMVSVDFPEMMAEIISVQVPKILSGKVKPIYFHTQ

Question: OC1(C(F)(F)F)c2[nH]c3c(Cl)cc(F)cc3c2CCC1C(F)(F)F (stereo unspecified) was tested. Which IC50 did it give?
Answer: > 10000 nM

Question: With OC1(C(F)(F)F)CCCc2c1[nH]c1c(Cl)cc(Cl)c(Cl)c21 (stereo unspecified) as the compound, how does the IC50 read?
Answer: > 10000 nM

Question: Which IC50 does the source give for OC1(C(F)(F)F)CCCc2c1[nH]c1ccc(Cl)c(Cl)c21 (stereo unspecified) here?
Answer: 40200 nM

Question: How did the IC50 turn out when O[C@]1(C(F)(F)F)CCCc2c1[nH]c1cc(Cl)c(Cl)cc21 was run?
Answer: 13 nM

Question: How did the IC50 turn out when OC1(C(F)(F)F)CCCc2c1[nH]c1cc(Cl)c(Cl)cc21 (stereo unspecified) was run?
Answer: 1560 nM

Question: For Oc1c(Br)ccc2c1[nH]c1cc(Cl)c(Cl)cc12, which IC50 is on record?
Answer: 34 nM

Question: How did the IC50 turn out when N#Cc1ccc2[nH]c3c(O)cccc3c2c1 was run?
Answer: 4600 nM

Question: Oc1cccc2c1[nH]c1ccc(Cl)c(Cl)c12 was tested. Which IC50 did it give?
Answer: 15 nM

Question: With Oc1cccc2c1[nH]c1ccc(Br)cc12 as the compound, how does the IC50 read?
Answer: 1420 nM

Question: For O[C@]1(C(F)(F)F)CCCc2c1[nH]c1c(Cl)cc(Cl)cc21, which IC50 is on record?
Answer: 20 nM

Question: For O[C@@]1(C(F)(F)F)CCCc2c1[nH]c1cc(Cl)c(Cl)cc21, which IC50 is on record?
Answer: > 1000 nM
